The text below walks through data of patent US20050238734A1, “Detection of nitrosylated proteins” (University of Vermont and State Agricultural College, priority 2004, published 2005).

For one experiment, the system named is C10 cells. The experiment in a line: In situ detection of S-nitrosylated proteins in intact cells (biotin derivatization, streptavidin-FITC, confocal microscopy). The class given is cell-based, mouse. As for the experimental part:
A line of spontaneously transformed mouse lung alveolar type II epithelial cells (C10) was used in some experiments, as described below. C10 cells were cultured in CMRL1066 medium containing 10% fetal bovine serum (FBS, GIBCO). In experiments involving microscopic analysis, the cells were grown on glass cover slips. At about one hour prior to exposure to a test agent, the medium was switched to phenol red free DMEM/F12 containing 0.5% FBS. Some cells were exposed to S-nitroso-glutathione (GSNO) or S-nitroso-N-acetyl penicillamine (SNAP) for about 1 hour, in the presence of an equimolar concentration of freshly prepared L-cysteine. To monitor S-nitrosylation in response to NOS2 activation, the cells were treated with 10 ng/ml TNF alpha (TNFα) and 100 U/ml interferon gamma (IFNγ), for about 24 hours. Incubation with L-N-monomethyl arginine (L-NMMA) for about 16 hours was used to inhibit endogenous NO production and D-NMMA (D-N-monomethyl arginine) was used as a control. Nuclear export was blocked by leptomycin B (5 ng/ml, exposure for about 12 hours). All experiments were performed in duplicate and were repeated at least three times.
To evaluate the localization of S-nitrosylated proteins in intact cells, the biotin derivatization method described above was used in combination with fluorophore labeling and visualized using confocal microscopy. Cells grown on cover slips were rinsed with PBS containing 0.1 mM EDTA and 0.01 mM neocuproine, and fixed in 4% PFA (paraformaldehyde) for 20 minutes at RT. The cells were permeabilized, and protein SH groups were blocked using HEN buffer containing 2.5% SDS, 0.5% CHAPS, and 20 mM MMTS (methylmethanethiosulfonate) for 20 min at 55° C. with constant shaking. After removal of MMTS, the cells were incubated with 1 mM sodium ascorbate and 0.4 mM biotin-HPDP (N-[6-(biotinamido)hexyl]-3′-(2′-pyridyldithio)propionamide) for about an hour at RT, and the cover slips were then incubated overnight with streptavidin-FITC at 4° C. Blocking was performed using 20 mM NEM for 30 minutes at 4° C., followed by incubation with 0.05 mM MPB and 1 mM sodium ascorbate for 1 hour at RT. The nuclei were stained with 10 microgram/ml PI (propidium iodide) for 30 minutes at RT. The cells were analyzed by confocal microscopy (magnification 40×) using an Olympus BX50 microscope coupled to a Bio-Rad (Hercules Calif.) MRC 1024 confocal scanning laser microscope system. Control experiments were also performed in which blocking of SH groups was omitted, or in which 100 micromolar HgCl2 was added prior to blocking of SH groups with MMTS or NEM. To assess the contribution of endogenous biotinylated proteins, the biotin-label was omitted in some control cover slips. All manipulations were performed in the dark. […]

The target in experiment [1] is T1, IKKβ (Homo sapiens, UniProt O14920).
T1 construct: IKKβ was immunopurified from TNFα-stimulated Jurkat T cells treated with SNO; endogenous in cells; host or cells: Jurkat T cells
T1 sequence (O14920 1-756): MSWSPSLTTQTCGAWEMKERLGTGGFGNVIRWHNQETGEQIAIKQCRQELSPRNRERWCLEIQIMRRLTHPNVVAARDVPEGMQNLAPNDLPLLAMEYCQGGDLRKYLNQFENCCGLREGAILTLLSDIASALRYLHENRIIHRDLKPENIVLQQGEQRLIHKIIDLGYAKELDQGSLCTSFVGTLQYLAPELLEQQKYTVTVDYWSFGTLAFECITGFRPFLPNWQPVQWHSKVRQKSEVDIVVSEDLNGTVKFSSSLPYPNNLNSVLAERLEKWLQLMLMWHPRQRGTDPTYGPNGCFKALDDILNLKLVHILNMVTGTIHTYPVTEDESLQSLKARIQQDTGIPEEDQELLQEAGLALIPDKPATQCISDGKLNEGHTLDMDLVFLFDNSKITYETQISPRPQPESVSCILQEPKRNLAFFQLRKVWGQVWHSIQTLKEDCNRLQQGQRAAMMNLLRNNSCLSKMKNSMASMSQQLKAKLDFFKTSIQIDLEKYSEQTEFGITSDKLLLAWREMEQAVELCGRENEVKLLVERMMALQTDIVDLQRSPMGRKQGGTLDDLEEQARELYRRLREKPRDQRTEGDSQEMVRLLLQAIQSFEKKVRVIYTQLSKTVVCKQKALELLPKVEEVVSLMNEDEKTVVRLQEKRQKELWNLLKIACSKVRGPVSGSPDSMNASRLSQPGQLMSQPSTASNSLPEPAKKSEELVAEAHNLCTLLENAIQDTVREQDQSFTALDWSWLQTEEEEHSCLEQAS
The experiment in a line: Biotin derivatization (biotin switch) of IKKβ in Jurkat T cells. Type of experiment: cell-based. As for the experimental part:
The detection of S-nitrosylated proteins was performed via a biotin switch method as follows. Following treatments, the cells were rinsed 2 times with PBS containing 0.1 mM EDTA and 0.01 mM neocuproine and lysed in HEN buffer (25 mM HEPES, pH 7.7, 0.1 mM EDTA, 0.01 mM neocuproine) containing 0.5% CHAPS, 0.1% SDS and 20 mM N-ethylmaleimide (NEM) at 4° C. for 30 min in order to block free thiols. The lysates were cleared by centrifugation at 14,000 g, 4° C. for 10 min and excess NEM was removed by protein precipitation using cold acetone. The protein pellets were resuspended in HENS buffer (HEN 1% SDS), and the SNO bonds were decomposed by adding 20 mM sodium ascorbate. The resulting free thiols were reacted with 0.05 mM sulfhydryl-specific biotinylating agent, N-(3-malemidylpropionyl)biocytin (MPB, Molecular Probes) for 30 min at room temperature, resulting in biotinylation of SNO. […] Biotinylated IKKβ was detected on the membrane using horseradish peroxidase-linked streptavidin. […]
A biotin derivatization method was also used to assess whether the IKKβ subunit is directly targeted by S-nitrosylation. […] IKKβ was subsequently immunoprecipitated from the lysates and its biotinylation was assessed using streptavidin-HRP on a western blot. […]

A further experiment concerns the target T2, wt HA-IKKβ (Homo sapiens, UniProt O14920).
T2 construct: expressed in transfected cells; host or cells: C10 mouse lung epithelial cells; plasmid a gift of Dr. Michael Karin
T2 sequence (O14920 1-756): T1 sequence (O14920 1-756)
The experiment in a line: TNFα-stimulated kinase activity of transfected wt HA-IKKβ in C10 cells. Type of experiment: cell-based. The note with it: TNFα-stimulated enzymatic activity. As for the experimental part:
The cells were exposed to test agents and at indicated times, transferred to ice, washed twice with cold PBS, and lysed in buffer containing 50 mM HEPES, 150 mM NaCl, 1 mM EDTA, 2 mM MgCl2, 10 mM Na3VO4, 1 mM phenylmethylsulfonyl fluoride, 0.1% Nonidet P-40, 10 μg/ml leupeptin, 1% aprotinin, 250 μM DTT and 100 μM NaF. The lysates were cleared by centrifugation at 14,000 rpm, 4° C. for 10 min. Protein concentrations were determined and the IKK complex was immunoprecipitated with an IKKγ antibody (Santa Cruz) at 4° C. for 1.5 h using protein G agarose beads. The precipitates were washed once with lysis buffer and twice with kinase buffer (20 mM HEPES, 20 mM β-glycerolphosphate, 1 mM MnCl2, 5 mM MgCl2, 2 mM NaF and 250 μM DTT). The kinase reaction was performed using 1 μg glutathione-S transferase (GST)-IκBα as a substrate, provided by Dr. Rosa Ten (Mayo Clinic, Rochester, Minn.), and 5 μCi γ^32P-adenosine triphosphate at 30° C. for 30 min. Kinase assays were performed in presence of 250 μM DTT, the minimal concentration necessary in order to maintain maximal TNFα-stimulated activity. The reactions were stopped by the addition of 2× Laemmli sample buffer. […] In separate experiments, the immunoprecipitated IKK complex or JNK1 from TNFα-stimulated cells was exposed to SNAP or GSNO for 15 min in lysis buffer in vitro prior to assessment of kinase activity. […]

The target of experiment [2] is T1, IKKβ. The experiment in a line: SNO content of immunopurified IKKβ by chemiluminescence. The class given is cell-based. The note with it: Jurkat T cells exposed to L-CSNO and TNFα. As for the experimental part: The total cellular SNO concentration (protein-bound plus free) was measured in lysates of cells treated with SNO in presence or absence of L-or D-cys. After 3 washes with PBS, the cells were lysed in the same buffer as was used for the biotin switch method. […] The amount of NO released from samples was estimated from a standard curve generated by injection of L-CSNO stock solutions. IKKβ was immunoprecipitated from Jurkat T cell lysates, using a monoclonal IKKβ antibody and protein G-agarose beads. After washing the immunoprecipitates 3 times with HEN buffer containing 50 mM NaCl to minimize co-associating proteins, the antigen-antibody complexes were removed from the beads by three 10 min incubations in 50 μl of 100 mM glycine pH 3.0 at 4° C. The eluates were treated with 0.6% sulfanilamide prior to the assessment of the SNO content via chemiluminescence, as described before. As a control, some lysates or immunoprecipitates were treated with 4.4 mM HgCl2 for 10 min at RT, followed by 20 min incubation at 4° C., and 10 min incubation with sulfanilamide at RT. To confirm that IKKβ was the predominant protein immunoprecipitated under these conditions, Laemmli sample buffer was added to the immunoprecipitate, samples were boiled, and evaluated on a silver-stained gel. All experiments were repeated at least two times and similar results were obtained. […]

In the next experiment the test system is RelA (p65). In words: RelA (p65) immunostaining, cytoplasmic versus nuclear localization. The class given is cell-based, mouse. As for the experimental part: FIGS. 4G and 4H illustrates an assessment of the presence of cytoplasmic protein. C10 cells were mock-treated (sham) (FIG. 4G) or stimulated with TNF alpha for 30 minutes, and submitted to the biotinylation protocols similar to those described above with respect to FIG. 1. RelA (p65) was detected using specific antibodies (Santa Cruz).
FIGS. 6A and 6C illustrate cells that were incubated with leptomycin B (5 ng/ml) for about 12 hours, followed by biotin derivatization, incubation with streptavidin-FITC, and analysis by confocal microscopy. […] These findings thus support the notion that S-nitrosylation occurs in proteins that are regulated by nuclear trafficking.
To ensure that the cytoplasmic targets were still present after this procedure, the presence of RelA was evaluated in sham or TNF alpha-treated cells. RelA, a subunit of the transcription factor, nuclear factor kappa B, is normally present in the cytoplasm and is translocated into the nucleus upon exposure to TNF alpha. […] In fact, increased S-nitrosylation of cytoplasmic proteins was observed after induction of NOS2 activity.

In the case of `OO` [H2O2, hydrogen peroxide], in the experiment with C10 cells (500 micromolar, 15 minutes), the “staining pattern (biotinylation)” value is given as “failed to alter”.

Take `N[C@@H](CSN=O)C(=O)O` [L-CSNO]: on IKKβ [1], the “S-nitrosylation of IKKβ (biotinylation)” value is given as “increase”. On wt HA-IKKβ, the “activity of wt HA-IKKβ” value is given as “inhibited”. Moreover, at IKKβ [2], the “SNO content of IKKβ” value is recorded as “marked increase”. Consider `CC(=O)N[C@H](C(=O)O)C(C)(C)SN=O` [SNAP, S-nitroso-N-acetyl penicillamine], for which the “biotinylation (S-nitrosylated proteins) in intact cells” value with C10 cells (1 mM, 1 hour) is on record as “enhanced”. Take `CCC(=C/[C@H](C)C/C=C/C(C)=C/[C@@H](C)C(=O)[C@@H](C)[C@H](O)[C@@H](C)C/C(C)=C/C(=O)O)/C=C/[C@@H]1OC(=O)C=C[C@@H]1C` [leptomycin B]: the “nuclear sequestration of RelA” value with RelA (p65) (5 ng/ml, about 12 hours) is reported as “enhanced”. The “biotinylation in the nuclear compartment” value with C10 cells (5 ng/ml, about 12 hours) is listed as “enhanced”. Take TNF alpha: the “S-nitrosylation of IKKβ (biotinylation)” value on IKKβ [1] is listed as “decreased”. Further, the “RelA presence in nucleus” value with RelA (p65) (30 minutes, dual staining with PI) is given as “enhanced nuclear presence”.
